The text below walks through data of US4456594A, “N-Carboxyalkylproline-containing tripeptides” (SmithKline Beckman Corporation, priority 1982, dated 1984).

Structures can show the parent of a compound that is named as a salt.

The test system of experiment [1] is anesthetized dogs. Nature of the experiment: renal vasodilator activity test in anesthetized dogs (infusion). Format: in vivo, dog. The conditions noted are these: for renal vasodilator activity: primary test period of the renal anesthetized dog screening protocol. From the text: Representative specific results are included in the examples.
Experiment [2] in a line: bradycardic effect (heart rate), test not stated. To be noted: in vivo.
Experiment [3] has as its system spontaneously hypertensive rats. Nature of the experiment: spontaneously hypertensive rat (SHR) diuretic naturetic assay. Format: in vivo. To be noted: 25 and 50 mg/kg i.p. The method, then:
In this test, male, Okamato-Aoki strain, spontaneously hypertensive rats, aged 16-19 weeks, are fasted, then, the following afternoon, the first dose of test compound is administered, along with a 25 ml/kg p.o. load of normal saline. The animals are, then, placed in metabolism cages and urine collected for three hours for analysis. Indirect systolic blood pressure and heart rate are measured by a tail-cuff. An identical second dose of test compound is administered. After two hours, blood pressure and heart rate are again tested. The test compound is usually administered p.o. or i.p. in saline with 0.02% ascorbic acid.

Experiment [4] relates to dopamine-sensitive adenylate cyclase system. Nature of the experiment: dopamine-sensitive adenylate cyclase system in vitro. Format: biochemical.
For experiment [5], the system named is toad bladder. Nature of the experiment: toad bladder anti-ADH assay.
Experiment [6] has as its system angiotensin coverting enzyme. Nature of the experiment: angiotensin converting enzyme inhibiting activity. In kind it is in vivo. The conditions noted are these: at 10 times its renally effective dose.
[7] abbreviates: two anesthetized dogs, 3, 30 and 300 μg/kg/min.

For the molecule `O=C(O)CN1CCC[C@H]1C(=O)NCC(=O)N1CCC[C@H]1C(=O)O` [N-carboxymethyl-prolyl-glycyl-L-proline], the renal vasodilator activity result in experiment [1] is “inactive”.
For `O=C(O)CN1CCC[C@H]1C(=O)NCCC(=O)N1CCC[C@H]1C(=O)O.O=S(=O)(O)O` [Example 3, N-carboxymethyl-L-prolyl-β-alanyl-L-proline sulfate], in experiment [2], the bradycardic effect entry is listed as “weak bradycardic effect”. Also, the “Na+, K+ or urine excretion (qualitative)” value in experiment [3] is “significant increase”. Besides, in experiment [1] (setting [7]), the “renal blood flow (qualitative)” value is recorded as “increased renal blood flow” and the “renal vascular resistance (qualitative)” value was “decreased renal vascular resistance”. For the same molecule, in experiment [4], the “stimulation or antagonism of dopamine-sensitive adenylate cyclase” value is reported as “did not stimulate or antagonize”. For the same molecule, the anti-ADH activity entry in experiment [5] is recorded as “nor was it active”. Further, the “angiotensin converting enzyme inhibiting activity” value in experiment [6] is “did not have angiotensin coverting enzyme inhibiting activity”.
As to `CC(C(=O)O)N1CCC[C@H]1C(=O)NCCC(=O)N1CCC[C@H]1C(=O)O` (stereo partly drawn) [N-(1-carboxyethyl)-L-prolyl-β-alanyl-L-proline], the renal vasodilator activity result in experiment [1] is “inactive”.
For `O=C(O)CN1CCC[C@H]1C(=O)N[C@@H](Cc1ccccc1)C(=O)N1CCC[C@H]1C(=O)O` [Example 2 sulfate, N-carboxymethyl-L-prolyl-L-phenylalanyl-L-proline], the “renal blood flow (qualitative)” value in experiment [1] (30 and 300 μg/kg/min) is listed as “increased renal blood flow”.
For the molecule `NCCCC[C@H](NC(=O)[C@@H]1CCCN1CC(=O)O)C(=O)N1CCC[C@H]1C(=O)O` [N-carboxymethyl-L-prolyl-L-lysyl-L-proline], in experiment [1], the renal vasodilator activity entry is “inactive”.
Turning to `NCCc1ccc(O)c(O)c1` [dopamine], in experiment [1] (secondary test in three dogs, i.v.), the RVR-ED15 came to 3.5 µg/kg.
